The record followed here is patent publication US10722520B2, “Heterocyclic compounds and their use in preventing or treating bacterial infections” (MUTABILIS, priority 2016, dated 2020).

Counter-ions that a name gives are not always drawn. Like-named read-outs stand apart in the source and are kept apart here.

Targets include TEM-1 (Escherichia coli, UniProt P62593); KPC-2 (Klebsiella pneumoniae, UniProt Q9F663); OXA-11 (Pseudomonas aeruginosa, UniProt Q06778); SHV-1 (Klebsiella pneumoniae, UniProt P0AD64); OXA-1 (Escherichia coli, UniProt P13661); OXA-48 (Klebsiella pneumoniae, UniProt Q6XEC0); CTX-M-15 (Escherichia coli, UniProt Q9EXV5).
The target in a further assay is OXA-15 (Pseudomonas aeruginosa, UniProt Q51574). Description: biochemical.
A further assay addresses AmpC (PAE) (Pseudomonas aeruginosa, UniProt P24735). The assay can be described thus: biochemical.
Another assay concerns the target AmpC (P99) (Enterobacter cloacae, UniProt P05364). Description: biochemical.
The next assay has as its system E. coli 190317. The assay can be described thus: MIC of compound alone, broth microdilution. Type of assay: cell-based. As to conditions: Escherichia coli; strain 190317; compound alone; read-out: MIC compounds of the invention alone. The method, boiled down: (§1)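 Exponential-phase inoculum, 5×10^5 cfu/mL final, in cation-supplemented MHB; 35° C in air for 16-20 h. MIC: lowest concentration giving no visible growth.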

Another assay has as its system K. pneumoniae 6299. The assay can be described thus: MIC of compound alone, broth microdilution. Format: cell-based. Conditions: Klebsiella pneumoniae; strain 6299; compound alone; read-out: MIC compounds of the invention alone. In a few lines: as §1
(In general: Dilution methods test growth across graded concentrations, often in twofold steps.)

In a further assay the test system is E. cloacae P99. The assay can be described thus: MIC of compound alone, broth microdilution. Type of assay: cell-based. As to conditions: Enterobacter cloacae; strain P99; compound alone; read-out: MIC compounds of the invention alone. The method, boiled down:
as §1

A further assay deals with P. aeruginosa CIP107051. The assay can be described thus: MIC of compound alone, broth microdilution. Format: cell-based. As to conditions: Pseudomonas aeruginosa; strain CIP107051; compound alone; read-out: MIC compounds of the invention alone. The method, boiled down: as §1
A further assay deals with K. pneumoniae BAA-1898. Description: MIC of compound alone, broth microdilution. Type of assay: cell-based. Conditions: Klebsiella pneumoniae, BAA1898; strain BAA-1898; compound alone; read-out: MIC compounds of the invention alone. In a few lines: as §1
The next assay deals with CMY-37 (Citrobacter freundii, UniProt P05193). As to conditions: read-out: IC50 β-lactamase CMY-37.
The mark [1] stands for this setting: class (C), nitrocefin 200 μM, 30-min pre-incubation, enzyme 0.2 nM.

Regarding `O=C(Nc1ccccn1)c1ccn(C2=CC3CN(C2)C(=O)N3OS(=O)(=O)[O-])n1.[Na+]` (stereo not drawn) [Example 80, sodium [7-oxo-3-[3-(2-pyridylcarbamoyl)pyrazol-1-yl]-1,6-diazabicyclo[3.2.1]oct-3-en-6-yl]sulfate], the IC50 came out at 0.27 nM against TEM-1; 11 nM against OXA-15; 2.6 nM on KPC-2; 5.5 nM on OXA-11; 150 nM against AmpC (PAE); 1.4 nM against SHV-1. Moreover, the IC50 at AmpC (P99) was 7.9 nM; at OXA-1 it was 30 nM; on CMY-37, 12 nM; at OXA-48, 0.86 nM; against CTX-M-15, 0.29 nM. Further, the MIC with E. coli 190317, in the assay on K. pneumoniae 6299, with E. cloacae P99, in the assay with P. aeruginosa CIP107051 and in the assay with K. pneumoniae BAA-1898 was above 32 µg/mL each time.
Consider `O=C(Nc1ccn(C2=CC3CN(C2)C(=O)N3OS(=O)(=O)O)n1)c1cncs1` (stereo not drawn) [Example 77, [3-[3-[thiazole-5-carbonyl]amino]pyrazol-1-yl]-7-oxo-1,6-diazabicyclo[3.2.1]oct-3-en-6-yl]hydrogen sulfate], for which the IC50 against TEM-1 came to 1.1 nM; against OXA-15, 46 nM; on KPC-2 it was 11 nM; against OXA-11, 16 nM; at AmpC (PAE) it was 58 nM; at SHV-1 it was 5.2 nM. The IC50 is 11 nM on AmpC (P99); 140 nM on OXA-1; 7.1 nM at CMY-37 (setting [1]); 7.8 nM against OXA-48; 1.5 nM against CTX-M-15. The MIC with E. coli 190317, in the assay on K. pneumoniae 6299, in the assay on E. cloacae P99, in the assay on P. aeruginosa CIP107051 and in the assay with K. pneumoniae BAA-1898 was above 32 µg/mL in each case.
As to `NCCONC(=O)c1ccn(C2=CC3CN(C2)C(=O)N3OS(=O)(=O)O)n1` (stereo not drawn) [Example 46, [3-[3-(2-aminoethoxycarbamoyl)pyrazol-1-yl]-7-oxo-1,6-diazabicyclo[3.2.1]oct-3-en-6-yl]hydrogen sulfate], the IC50 was determined as 0.89 nM against TEM-1; 170 nM against OXA-15; 11 nM against KPC-2; 49 nM at OXA-11; 160 nM against AmpC (PAE); 4 nM on SHV-1. The concentration for half-maximal inhibition (IC50) against AmpC (P99) is 25 nM; against OXA-1, 140 nM; at CMY-37 (setting [1]) it was 16 nM; against OXA-48, 3.9 nM; against CTX-M-15, 0.7 nM. The minimal inhibitory concentration (MIC) was 2 µg/mL in the assay on E. coli 190317; above 32 µg/mL in the assay with K. pneumoniae 6299; 16 µg/mL in the assay on E. cloacae P99; above 32 µg/mL in the assay with P. aeruginosa CIP107051; 16 µg/mL in the assay on K. pneumoniae BAA-1898.
As for `NC(=O)c1cnn(C2=CC3CN(C2)C(=O)N3OS(=O)(=O)[O-])c1.[Na+]` (stereo not drawn) [Example 7, sodium [3-(4-carbamoylpyrazol-1-yl)-7-oxo-1,6-diazabicyclo[3.2.1]oct-3-en-6-yl]sulfate], the IC50 turned out to be 0.72 nM against TEM-1; 55 nM at OXA-15; 12 nM against KPC-2; 93 nM against OXA-11; 400 nM against AmpC (PAE); 4.7 nM against SHV-1. In addition, the IC50 on AmpC (P99) is 21 nM; on OXA-1, 250 nM; on CMY-37 it was 22 nM; on OXA-48, 7.8 nM; on CTX-M-15, 2.7 nM. The MIC with E. coli 190317 was 16 µg/mL; in the assay with K. pneumoniae 6299 it was above 32 µg/mL; in the assay on E. cloacae P99, above 32 µg/mL; in the assay with P. aeruginosa CIP107051, above 32 µg/mL; with K. pneumoniae BAA-1898 it was above 32 µg/mL.
`CNCc1cn(C2=CC3CN(C2)C(=O)N3OS(=O)(=O)O)nn1` (stereo not drawn) [Example 60, [3-[4-(methylaminomethyl)triazol-1-yl]-7-oxo-1,6-diazabicyclo[3.2.1]oct-3-en-6-yl]hydrogen sulfate]: the IC50 at TEM-1 turned out to be 0.35 nM; on OXA-15, 8.1 nM; on KPC-2, 14 nM; against OXA-11, 130 nM; on AmpC (PAE), 330 nM; on SHV-1 it was 2 nM. Also, the IC50 was determined as 27 nM against AmpC (P99); 130 nM at OXA-1; 68 nM at CMY-37 (setting [1]); 1.2 nM at OXA-48; 0.73 nM on CTX-M-15. In addition, the MIC with E. coli 190317 is 0.5 µg/mL; in the assay with K. pneumoniae 6299 it was above 32 µg/mL; in the assay on E. cloacae P99, 1 µg/mL; in the assay on P. aeruginosa CIP107051, 32 µg/mL; in the assay on K. pneumoniae BAA-1898, above 32 µg/mL.
Regarding `NC(=O)CNCc1cn(C2=CC3CN(C2)C(=O)N3OS(=O)(=O)O)nn1` (stereo not drawn) [Example 66, [3-(4-(2-(methylamino)acetamide)triazol-1-yl)-7-oxo-1,6-diazabicyclo[3.2.1]oct-3-en-6-yl]hydrogen sulfate], the IC50 on TEM-1 is 0.36 nM; on OXA-15 it was 7.5 nM; against KPC-2, 6.1 nM; against OXA-11 it was 140 nM; on AmpC (PAE), 250 nM; against SHV-1, 3.1 nM. The IC50 against AmpC (P99) came to 14 nM; on OXA-1, 87 nM; at CMY-37 (setting [1]), 26 nM; against OXA-48, 0.64 nM; on CTX-M-15 it was 0.54 nM. For the same compound, the MIC was 4 µg/mL with E. coli 190317; 32 µg/mL in the assay with K. pneumoniae 6299; 8 µg/mL with E. cloacae P99; above 32 µg/mL with P. aeruginosa CIP107051; 16 µg/mL in the assay with K. pneumoniae BAA-1898.
For the compound `O=C1N2CC(n3cc(CNCCO)nn3)=CC(C2)N1OS(=O)(=O)O` (stereo not drawn) [Example 67, [3-(4-(2-(methylamino)ethanol)triazol-1-yl)-7-oxo-1,6-diazabicyclo[3.2.1]oct-3-en-6-yl]hydrogen sulfate], the IC50 against TEM-1 is 1.2 nM; against OXA-15, 18 nM; at KPC-2 it was 20 nM; at OXA-11 it was 250 nM; on AmpC (PAE), 720 nM; on SHV-1 it was 8.4 nM. The IC50 against AmpC (P99) was 38 nM; on OXA-1, 270 nM; at CMY-37 (setting [1]), 100 nM; at OXA-48, 1.6 nM; against CTX-M-15, 1.3 nM. Moreover, the MIC in the assay with E. coli 190317 is 2 µg/mL; in the assay on K. pneumoniae 6299 it was above 32 µg/mL; in the assay with E. cloacae P99, 4 µg/mL; in the assay on P. aeruginosa CIP107051 it was above 32 µg/mL; in the assay with K. pneumoniae BAA-1898, above 32 µg/mL.
For `NCCc1cnn(C2=CC3CN(C2)C(=O)N3OS(=O)(=O)O)c1` (stereo not drawn) [Example 41, [3-[4-(2-aminoethyl)pyrazol-1-yl]-7-oxo-1,6-diazabicyclo[3.2.1]oct-3-en-6-yl]hydrogen sulfate], the IC50 against TEM-1 worked out at 0.58 nM; at OXA-15, 40 nM; against KPC-2, 57 nM; at OXA-11 it was 180 nM; against AmpC (PAE), 88 nM; at SHV-1 it was 4.5 nM. Besides, the IC50 was 36 nM against AmpC (P99); 750 nM against OXA-1; 21 nM at CMY-37 (setting [1]); 8.9 nM against OXA-48; 0.91 nM on CTX-M-15. In addition, the MIC was 2 µg/mL in the assay with E. coli 190317; above 32 µg/mL in the assay with K. pneumoniae 6299; 4 µg/mL in the assay with E. cloacae P99; 32 µg/mL with P. aeruginosa CIP107051; above 32 µg/mL in the assay on K. pneumoniae BAA-1898.
Consider `O=C(NC1CCNCC1)c1ccn(C2=CC3CN(C2)C(=O)N3OS(=O)(=O)O)n1` (stereo not drawn) [Example 32, (7-oxo-3-[3-(4-piperidylcarbamoyl)pyrazol-1-yl]-1,6-diazabicyclo[3.2.1]oct-3-en-6-yl) hydrogen sulfate], for which the IC50 was determined as 1.1 nM at TEM-1; 39 nM against OXA-15; 6.9 nM on KPC-2; 27 nM against OXA-11; 210 nM against AmpC (PAE); 8.2 nM against SHV-1. The IC50 against AmpC (P99) turned out to be 29 nM; against OXA-1, 79 nM; at CMY-37 (setting [1]), 59 nM; on OXA-48, 1.5 nM; at CTX-M-15 it was 1 nM. The MIC in the assay with E. coli 190317 is 8 µg/mL; with K. pneumoniae 6299 it was 32 µg/mL; in the assay with E. cloacae P99 it was 16 µg/mL; in the assay on P. aeruginosa CIP107051, above 32 µg/mL; with K. pneumoniae BAA-1898 it was 16 µg/mL.

In general, IC50 refers to the point on the concentration scale where inhibition reaches its midpoint. What is called MIC is the smallest concentration in the dilution series that meets the test's criterion for growth inhibition.
